The term Papp denotes the rate of passage across a membrane or cell layer, normalised by area and donor concentration. A lower Papp goes with poor permeation.

SMILES strings stand for the structures.

Data set [1] relates to chick embryo dorsal root ganglion. Briefly: in vitro serum-free culture model of chick embryonic dorsal root ganglion: neurite growth score with NGF. The class given is cell-based. The following applies: for Average score (growth of neurites of chick embryo dorsal root ganglion): 48 h, score 0-3, average of five ganglions, control 0.33. As to the method: The neurotrophic activity of the compounds according to the invention can be embodied in multiple in vitro biological models, such as in vitro serum-free culture model of chick embryonic dorsal root ganglion.
Experimental method: in a sterile environment, chick embryo, which had been incubated for 8 d, had the spinal and bilateral ganglion exposed under anatomical lens. Dorsal root ganglions were picked one by one using sharp forceps, and seeded in culture bottles spread with rat tail collagen, at a density of 5-6 ganglions per bottle, and two bottles for each dose. After attachment culture in a 37° C., 5% CO2 incubator for 1 h, serum-free medium DMEM containing nerve growth factor (NGF) (0.15 ng/mL), and the compound according to the invention were added. In the control group, only the medium and the same dose of NGF were added. After culture in the incubator for 48 h, the growth of neurite around dorsal root ganglion was observed under inverted phase contrast microscope, which was scored depending on the length and density of neurite.
Evaluation criteria: 0: no neurite; 1: rare long neurite; 2: relatively long or dense neurite; 3: long and dense neurite.

In data set [2] the test system is BCAO-LBP mice (incomplete global cerebral ischemia). Briefly: mouse BCAO-LBP model of incomplete global cerebral ischemia: cerebral MDA content and neurological function score. The class given is in vivo, Kunmin mice. As to conditions: for Neurologic deficit score / MDA content: 30 mg/kg i.g. once/d for 3 d, x ± SEM; for Neurologic deficit score: behaviour within 6 h after ligation, model group 3.92, sham 0.00; for neurologic deficit score decreased compared to the group administered with Compound 6: 30 mg/kg i.g., BCAO-LBP mice; for MDA content: whole cerebrum, model group 40.94, sham 33.15. The text has this: In the Example, Kunmin mice were used as experimental subjects, intragastric (i.g.) administration was used, mouse BCAO-LBP (bilateral carotid artery occlusion with low blood pressure) model was used, and by determining neurological function score and the cerebral malondialdehyde (MDA) content in mice, the compounds were investigated for their protective effects on incomplete global cerebral ischemia in mice when administered prophylactically.
2.1.2 Preparation of a drug for intragastric administration: the compound was prepared to a 1.5 mg/ml solution using 0.7% CMC-Na solution.
28 mice, which had adapted to the laboratory environment for 1 week, were evenly grouped depending on body weight. The mice were intragastrically administered with 0.7% CMC-Na or one of the compounds, once/d, for 3 d. The groups were as followed:
Administration group: 12 mice, intragastrically administered at a dose of 0.2 ml/10 g, i.e., the dose of the compound was 30 mg/kg.
2.3.1 Mouse bilateral carotid artery ligation: 1 h after the last administration, the mice were subjected to orbital bloodletting to reduce blood pressure (which was about 30% of the total blood volume of the mice), and then fixed in supine position on the operating table, and cut in the middle of neck. Carotid artery was subjected to blunt dissection, and 2 lines were used in ligation for each side. The time counting started after the ligation with the third line, the carotid artery was cut off between the two lines, and the incision was sewn up. In the Sham-operated group, the carotid artery was only separated without ligation. After the operation, the mice were unfixed quickly, and the mice were observed and recorded for the behaviors within 6 h (scoring depending on the following table using blind method) and the death time. The brains were taken quickly after the mice died, the cerebellums were removed, and the MDA content in the whole cerebrum was determined by thiobarbituric acid (TBA).
The cerebra of mice were taken and weighed, and were prepared into 15% brain homogenate using N.S. 1.2 ml brain homogenate was placed in a 37° C. water bath for 1 h (shaking once every 10 min) and then taken out. 20% trichloroacetic acid 0.6 ml was added, and the mixture was mixed well, and was on standing for 10 min. After centrifugation at 2000 rpm for 10 min, to 1.2 ml supernatant, 0.67% TBA 0.6 ml was added. The mixture was placed in a boiling water bath for 10 min, and was taken out for cooling, and the OD value at a wavelength of 532 nm was determined.
The experimental data was expressed as x±SEM; SPSS 13.0 statistic software was used. Homogeneity or heterogeneity of variance was determined by one-factor analysis of variance. In the case of homogeneity of variance, LSD test was used; in the case of heterogeneity of variance, Dunnett's T3 test was used. Significant difference among different groups was compared, and P<0.05 indicated statistical significance.

The subject of data set [3] is MDCK-MDR1 cells. Description: in vitro. As to conditions: for Papp value increased compared to Compound 6: dog, MDCK-MDR1, 120 min. From the text:
(§1) MDCK-MDR1 cells were monolayer cells which highly express P-gp transporter after transfection of MDCK (Madin-Darby canine kidney epithelial cell) with MDR1 gene. Due to its density and high expression of efflux protein, the monolayer has similarity compared to blood-brain barrier (BBB) structure and now can be used as one of models for evaluating the ability of passing through BBB. In the invention, MDCK-MDR1 cells were used to study the membrane permeability of the compounds according to the invention, and to primarily evaluate its ability of passing through BBB.
(§2) The frozen MDCK-MDR1 cells were quickly thawed in a 37° C. water bath. To the resuscitated cells, DMEM medium containing 10% FBS was added, and the cells were cultured in an incubator at 37° C., 5% CO2, and a relative humidity of 90%. The medium was changed every other day. After fusion of the cells growing for 1-2 days, the cells were digested with 0.25% trypsin-EDTA (0.2%) mixed digestion solution at 37° C., and were sub-cultured at a certain ratio. The cells for use in experiment were those passaged for 40-60 generations.
(§3) When the cell fusion degree reached 80%, the cells were digested and then suspended in complete medium, and seeded to Millicell plate at 1×10^6 cells·mL^−1. The medium was changed every other day, and 1 week later, the medium was changed every day. After culturing for 5 days, the resistance value reached a constant value (>200 Ω·cm^2), and the cells could be used in the transport experiment.
(§4) After washing with 37° C. HBSS twice, the cells were incubated in a 37° C. culture incubator, wherein Rho-123 was added to the upper wells, and HBSS was added to the bottom wells. The incubation was carried out in a constant temperature shaker, and the solutions from the bottom wells were collected at each time point (0 min, 30 min, 90 min, 120 min), and stored at −20° C. for further use. The amount of Rho-123 permeated to the bottom well was determined by fluorospectrophotometer, wherein the emission wavelength was […], and the excitation wavelength was 530 nm.
(§5) The permeability from cavity-surface to basal surface: drug-containing HBSS 0.35 mL was add to Apical (AP), and blank HBSS 1.2 mL was added to Basolateral (BL). The Millicell was placed at 37° C. in a shaker under shaking at 50 r·min^−1, 50 μL sample was collected from the bottom well at 0, 30, 90, 120 min, respectively, and the same volume of blank HBSS was supplemented. 3 wells were set for each concentration, and to the sample, an internal standard solution (50 μL) and ethyl acetate (350 μL) were added precisely. The mixture was mixed homogeneously under shaking, and centrifuged at 12000 rmp for 5 min. The supernatant (300 μL) was volatilized to dryness, and re-dissolved in 50 μL acetonitrile. The 10 μL resultant solution was used for determination.
(§6) The permeability from basal surface to cavity surface: the drug is added to Basolateral (BL), and blank HBSS was added to Apical (AP), and the other steps were the same as those of the experiment for determining the permeability from cavity-surface to basal surface.
(§7) The apparent permeability coefficient (Papp) of a drug reflects the ability of the drug to pass through cell monolayer and the drug absorption rate and extent. It can be calculated in accordance with the following equation: […]
(§8) wherein, Q represents the amount of drug permeated in the t period, A represents cell surface area, and represents the area (0.6 cm^2) of supporting film in this model, and C0 represents an initial concentration. The unit of Papp is expressed as cm·s^−1.
(§9) By measurement using LC/MS, the concentration of each sample was quantitated using its standard curve (50 nM-10000 nM).

Data set [4] can be described thus: in vitro. The following applies: dog, MDCK-MDR1.
From the text: as §1, §2, §3, §4, §5, §6, §7, §8, §9

Where [5] appears, read: compound 100 pM + NGF 0.15 ng/mL.

With `CCc1ccc(S(=O)(=O)N2CCSC[C@H]2C(=O)NC(CC(C)C)C(=O)OC(C)C)cc1` (stereo in doubt) [Compound 28, (3R)-4-[(4-ethylbenzenesulfonyl)]tetrahydro-1,4-thiazin-3-carbonyl-L-leucine isopropyl ester], the “Average score (growth of neurites of chick embryo dorsal root ganglion)” value (“Average score” for short) in data set [1] (compound 1 pM + NGF 0.15 ng/mL) turned out to be 2.00; in data set [1] (setting [5]), 2.96. Further, the “neurotrophic activity increased compared to Compound 6” value in data set [1] (dose 1 pM) was found to be 19%; in data set [1] (dose 100 pM), 16%. Further, the Neurologic deficit score in data set [2] was determined as 1.87 ± 0.31. Also, the “neurologic deficit score decreased compared to the group administered with Compound 6” value in data set [2] is given as about 10%. In addition, the MDA content in data set [2] came to 30.90 ± 1.65 nmol/g. Further, in data set [3], the “Papp value increased compared to Compound 6” value (“Papp value increased” for short) was “above 7%”. In addition, the Papp at 120 min in data set [4] was found to be 45.8 ×10⁻⁶ cm/s.
As for `Cc1ccc(S(=O)(=O)N2CCSC[C@H]2C(=O)N[C@H](CC(C)C)C(=O)OC(C)C)cc1` [Compound 6, (3R)-4-[(4-methylbenzenesulfonyl)]-1,4-thiazin-3-carbonyl-D-leucine isopropyl ester, reference compound], the “Average score” value in data set [1] (compound 1 pM + NGF 0.15 ng/mL) was 1.68. Besides, the “Average score” value in data set [1] (setting [5]) worked out at 2.55. In data set [2], the Neurologic deficit score is listed as 2.08 ± 0.40 and the MDA content is on record as 32.87 ± 0.95 nmol/g. Further, the “Papp (apparent permeability coefficient)” value in data set [3] (MDCK-MDR1) worked out at 39.5 ×10⁻⁶ cm/s.
Turning to `CCOC(=O)[C@@H](NC(=O)[C@@H]1CSCCN1S(=O)(=O)c1ccc(C)cc1)C(C)CC` (stereo partly drawn) [Compound 7, (2S,3R)-ethyl-3-methyl-2((R)-(4-methylphenyl)sulfonyltetrahydro-1,4-thiazin-3-aminoformyl)valerate], the “Average score” value in data set [1] (compound 1 pM + NGF 0.15 ng/mL) was found to be 1.46; in data set [1] (setting [5]), 1.95. Besides, the “Papp value increased” value in data set [3] is reported as “above 7%”. The Papp at 120 min in data set [4] is 49.8 ×10⁻⁶ cm/s.
Take `Cc1ccc(S(=O)(=O)N2CCSC[C@H]2C(=O)N[C@@H](Cc2ccccc2)C(=O)OC(C)C)cc1` [Compound 23, (S)-isopropyl-3-phenyl-2((R)-(4-methylphenyl)sulfonyltetrahydro-1,4-thiazin-3-aminoformyl)propionate]: the “Average score” value in data set [1] (compound 1 pM + NGF 0.15 ng/mL) is given as 2.12. Further, the “Average score” value in data set [1] (setting [5]) is given as 3.21. In data set [2], the Neurologic deficit score is reported as 1.81 ± 0.26, the “neurologic deficit score decreased compared to the group administered with Compound 6” value was about 13% and the MDA content was 31.87 ± 0.95 nmol/g. Besides, the “Papp value increased” value in data set [3] was “above 7%”. For the same compound, the Papp at 120 min in data set [4] stood at 44.2 ×10⁻⁶ cm/s.

The record behind these values is patent US10335417B2, “Thiazideamide derivative and use thereof” (Institute of Pharmacology and Toxicology Academy of …, priority 2015, dated 2019).
